Experimental data as given in publication PMC6628235 (Marine Drugs, 2019).

Columns and labels:
Type in all cases: biochemical
[1] = biological target: T1, butyrylcholinesterase (BuChE) (Equus caballus, UniProt P81908); experiment: modified Ellman's assay, % inhibition at […] (IC50 not determined)
T1 construct: gene BCHE

[2] = biological target: acetylcholinesterase (AChE) (Electrophorus electricus, UniProt O42275); experiment: modified Ellman's microplate assay ([…] inhibition at […])
[3] = biological target: T1, butyrylcholinesterase (BuChE); experiment: modified Ellman's assay, positive control, % inhibition at […] (IC50 not determined)

T1 sequence (P81908 whole entry): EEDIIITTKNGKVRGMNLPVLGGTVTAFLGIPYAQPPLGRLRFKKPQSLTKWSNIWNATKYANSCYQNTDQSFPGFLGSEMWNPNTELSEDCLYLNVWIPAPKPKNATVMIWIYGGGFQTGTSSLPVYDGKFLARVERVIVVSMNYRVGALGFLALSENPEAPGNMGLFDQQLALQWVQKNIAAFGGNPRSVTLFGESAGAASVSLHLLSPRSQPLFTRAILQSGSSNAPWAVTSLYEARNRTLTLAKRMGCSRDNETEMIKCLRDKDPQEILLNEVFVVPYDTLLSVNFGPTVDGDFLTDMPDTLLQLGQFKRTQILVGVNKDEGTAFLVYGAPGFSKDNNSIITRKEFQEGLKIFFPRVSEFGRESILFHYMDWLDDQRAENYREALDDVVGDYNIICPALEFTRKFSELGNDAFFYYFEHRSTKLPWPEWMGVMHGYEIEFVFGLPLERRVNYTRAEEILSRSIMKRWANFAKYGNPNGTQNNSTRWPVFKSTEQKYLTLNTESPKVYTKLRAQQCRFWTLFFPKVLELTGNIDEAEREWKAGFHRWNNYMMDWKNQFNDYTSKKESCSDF
Chain of acetylcholinesterase (AChE) (O42275 24-633): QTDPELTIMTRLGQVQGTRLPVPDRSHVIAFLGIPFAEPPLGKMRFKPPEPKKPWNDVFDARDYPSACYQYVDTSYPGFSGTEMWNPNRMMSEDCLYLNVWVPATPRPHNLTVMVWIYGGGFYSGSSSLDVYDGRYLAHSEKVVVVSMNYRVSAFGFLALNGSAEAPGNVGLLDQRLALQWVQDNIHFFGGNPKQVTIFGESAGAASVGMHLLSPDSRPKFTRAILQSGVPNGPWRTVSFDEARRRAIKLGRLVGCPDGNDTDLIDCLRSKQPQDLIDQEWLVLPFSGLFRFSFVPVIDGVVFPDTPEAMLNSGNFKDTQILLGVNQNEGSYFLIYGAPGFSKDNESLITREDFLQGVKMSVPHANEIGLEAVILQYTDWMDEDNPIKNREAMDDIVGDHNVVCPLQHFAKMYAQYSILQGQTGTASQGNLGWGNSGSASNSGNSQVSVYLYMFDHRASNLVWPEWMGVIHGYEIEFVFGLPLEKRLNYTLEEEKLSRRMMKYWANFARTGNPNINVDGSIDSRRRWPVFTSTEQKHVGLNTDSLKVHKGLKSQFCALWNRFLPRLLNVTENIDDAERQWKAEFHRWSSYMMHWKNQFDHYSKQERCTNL

CC1=C[C@H](O)[C@]2(CC1=O)C[C@H](O)C(C)(C)O2 [compound 1, (3S, 5R, 10S)-3,10-dihydroxy-2,2,8-trimethyl-1-oxospiro[4.5]dec-8-en-7-one]
inhibition at 6.25 µM [1]: 30.71 ± 0.21%

Cc1cc2nc3[nH]c(=O)[nH]c(=O)c3nc2cc1C [compound 3, lumichrome]
IC50 [2]: 12.24 ± 0.12 µM

COc1ccc2c3c1O[C@H]1C[C@@H](O)C=C[C@@]31CCN(C)C2 [galantamine]
% inhibition at 6.25 μM [3]: 10.34 ± 0.21
